Reference: ChEMBL document CHEMBL5154644, “Design, Synthesis, and Structure-Activity Relationship Optimization of Pyrazolopyrimidine Amide Inhibitors of Phosphoinositide 3-Kinase γ (PI3Kγ)” (J Med Chem, 2022)
The source made the active and inactive calls. No cut-off for these calls is given here.

How the values were obtained:
[1] = Hepatic clearance in Sprague-Dawley rat by LC-MS/MS analysis; assay type: ADME; settings: in vivo
[2] = molecular target: T1, Phosphatidylinositol 4,5-bisphosphate 3-kinase catalytic subunit gamma isoform (Homo sapiens, UniProt P48736); assay: Inhibition of PI3Kgamma (unknown origin) in […] stimulated human THP-1 cells assessed as reduction in Akt phosphorylation level at Ser473 residue preincubated for 60 mins followed by rhMCP-1 stimulation and measured after 2 mins by AlphaLisa assay; assay type: cell-based
Target sequence in this assay (P48736 whole entry, canonical isoform): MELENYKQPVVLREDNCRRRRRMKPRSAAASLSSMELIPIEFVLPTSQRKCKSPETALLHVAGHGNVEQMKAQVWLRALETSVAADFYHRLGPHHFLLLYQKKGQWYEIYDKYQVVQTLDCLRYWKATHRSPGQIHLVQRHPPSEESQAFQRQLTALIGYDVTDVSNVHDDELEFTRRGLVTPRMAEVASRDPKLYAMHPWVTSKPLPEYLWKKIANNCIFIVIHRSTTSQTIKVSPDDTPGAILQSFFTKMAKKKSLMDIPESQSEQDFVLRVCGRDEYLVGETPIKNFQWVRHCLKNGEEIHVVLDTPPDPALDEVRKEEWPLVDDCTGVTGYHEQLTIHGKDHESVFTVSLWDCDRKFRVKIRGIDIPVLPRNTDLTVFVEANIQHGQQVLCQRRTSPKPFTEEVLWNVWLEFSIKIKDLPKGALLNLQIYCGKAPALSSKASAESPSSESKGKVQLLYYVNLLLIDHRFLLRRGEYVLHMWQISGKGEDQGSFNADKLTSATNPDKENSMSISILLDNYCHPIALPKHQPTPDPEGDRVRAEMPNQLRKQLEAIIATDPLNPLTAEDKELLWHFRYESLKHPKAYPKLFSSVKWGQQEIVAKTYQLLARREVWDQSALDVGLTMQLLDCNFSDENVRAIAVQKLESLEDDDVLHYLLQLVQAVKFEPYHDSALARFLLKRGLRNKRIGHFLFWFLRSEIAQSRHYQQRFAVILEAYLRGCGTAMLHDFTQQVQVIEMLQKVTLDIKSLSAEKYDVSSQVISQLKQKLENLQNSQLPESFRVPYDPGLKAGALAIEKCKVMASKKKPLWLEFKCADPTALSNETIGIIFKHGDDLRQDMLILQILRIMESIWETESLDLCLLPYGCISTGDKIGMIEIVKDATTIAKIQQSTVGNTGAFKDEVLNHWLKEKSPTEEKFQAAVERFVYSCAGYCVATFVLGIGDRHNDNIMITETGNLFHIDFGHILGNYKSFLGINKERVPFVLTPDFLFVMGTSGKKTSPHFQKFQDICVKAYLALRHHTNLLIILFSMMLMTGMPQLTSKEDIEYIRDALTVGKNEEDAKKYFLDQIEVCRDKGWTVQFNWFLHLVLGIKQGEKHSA

[3] = molecular target: T1, Phosphatidylinositol 4,5-bisphosphate 3-kinase catalytic subunit gamma isoform; assay: Inhibition of PI3Kgamma (unknown origin) using PIP2 as substrate preincubated for 1 hr followed by substrate addition and measured after 60 mins in presence of ATP by ADP-glo assay
Target sequence in this assay (P48736 whole entry, canonical isoform): as above

[4] = Metabolic stability in human hepatocytes assessed as intrinsic clearance per 10^6 cells at 0.5 uM by LC-MS/MS analysis; assay type: ADME, cell-based, Hepatocyte; settings: read-out: CLH
[5] = molecular target: T1, Phosphatidylinositol 4,5-bisphosphate 3-kinase catalytic subunit gamma isoform; assay: Inhibition of PI3Kgamma in SDF-1alpha stimulated human whole blood assessed as reduction in phospho-AKT kinase activity preincubated for 1 hr followed by SDF-1alpha stimulation and measured after 2 mins by flow cytometric analysis; assay type: tissue-based
Target sequence in this assay (P48736 whole entry, canonical isoform): as above

[6] = molecular target: Phosphatidylinositol 4,5-bisphosphate 3-kinase catalytic subunit alpha isoform (Homo sapiens, UniProt P42336); assay: Inhibition of PI3Kalpha (unknown origin) using PIP2 as substrate preincubated for 1 hr followed by substrate addition and measured after 60 mins in presence of ATP by ADP-glo assay
Sequence of Phosphatidylinositol 4,5-bisphosphate 3-kinase catalytic subunit alpha isoform (P42336 whole entry, canonical isoform): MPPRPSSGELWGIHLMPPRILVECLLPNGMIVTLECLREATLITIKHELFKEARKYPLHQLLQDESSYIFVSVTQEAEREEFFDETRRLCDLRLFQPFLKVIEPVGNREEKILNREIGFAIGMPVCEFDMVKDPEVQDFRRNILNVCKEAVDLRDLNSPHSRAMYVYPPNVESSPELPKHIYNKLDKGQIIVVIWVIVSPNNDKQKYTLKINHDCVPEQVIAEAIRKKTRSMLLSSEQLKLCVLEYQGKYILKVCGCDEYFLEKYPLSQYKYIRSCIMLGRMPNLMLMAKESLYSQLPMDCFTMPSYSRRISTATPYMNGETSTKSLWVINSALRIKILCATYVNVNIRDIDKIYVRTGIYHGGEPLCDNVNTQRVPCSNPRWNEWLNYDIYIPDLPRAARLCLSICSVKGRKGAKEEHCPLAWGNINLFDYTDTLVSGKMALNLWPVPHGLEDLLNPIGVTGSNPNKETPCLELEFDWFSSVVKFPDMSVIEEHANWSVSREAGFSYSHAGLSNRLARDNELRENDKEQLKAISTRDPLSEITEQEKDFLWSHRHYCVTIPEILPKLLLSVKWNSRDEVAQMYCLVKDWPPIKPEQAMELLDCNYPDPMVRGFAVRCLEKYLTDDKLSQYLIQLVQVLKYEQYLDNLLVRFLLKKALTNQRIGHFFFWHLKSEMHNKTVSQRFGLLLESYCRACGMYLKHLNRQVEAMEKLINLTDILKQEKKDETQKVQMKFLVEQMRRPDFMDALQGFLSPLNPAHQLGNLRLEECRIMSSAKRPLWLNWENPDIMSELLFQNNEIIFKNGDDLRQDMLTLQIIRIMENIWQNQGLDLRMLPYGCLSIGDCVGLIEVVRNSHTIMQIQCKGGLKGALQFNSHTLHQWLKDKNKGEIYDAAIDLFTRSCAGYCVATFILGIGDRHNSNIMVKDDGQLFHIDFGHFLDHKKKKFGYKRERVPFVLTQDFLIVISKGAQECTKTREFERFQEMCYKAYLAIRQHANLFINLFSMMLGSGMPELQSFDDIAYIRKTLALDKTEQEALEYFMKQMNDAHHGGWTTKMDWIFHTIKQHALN

[7] = molecular target: T2, Phosphatidylinositol 4,5-bisphosphate 3-kinase catalytic subunit delta isoform (Homo sapiens, UniProt O00329); assay: Inhibition of PI3Kdelta (unknown origin) using PIP2 as substrate preincubated for 1 hr followed by substrate addition and measured after 60 mins in presence of ATP by ADP-glo assay
T2 sequence (O00329 whole entry): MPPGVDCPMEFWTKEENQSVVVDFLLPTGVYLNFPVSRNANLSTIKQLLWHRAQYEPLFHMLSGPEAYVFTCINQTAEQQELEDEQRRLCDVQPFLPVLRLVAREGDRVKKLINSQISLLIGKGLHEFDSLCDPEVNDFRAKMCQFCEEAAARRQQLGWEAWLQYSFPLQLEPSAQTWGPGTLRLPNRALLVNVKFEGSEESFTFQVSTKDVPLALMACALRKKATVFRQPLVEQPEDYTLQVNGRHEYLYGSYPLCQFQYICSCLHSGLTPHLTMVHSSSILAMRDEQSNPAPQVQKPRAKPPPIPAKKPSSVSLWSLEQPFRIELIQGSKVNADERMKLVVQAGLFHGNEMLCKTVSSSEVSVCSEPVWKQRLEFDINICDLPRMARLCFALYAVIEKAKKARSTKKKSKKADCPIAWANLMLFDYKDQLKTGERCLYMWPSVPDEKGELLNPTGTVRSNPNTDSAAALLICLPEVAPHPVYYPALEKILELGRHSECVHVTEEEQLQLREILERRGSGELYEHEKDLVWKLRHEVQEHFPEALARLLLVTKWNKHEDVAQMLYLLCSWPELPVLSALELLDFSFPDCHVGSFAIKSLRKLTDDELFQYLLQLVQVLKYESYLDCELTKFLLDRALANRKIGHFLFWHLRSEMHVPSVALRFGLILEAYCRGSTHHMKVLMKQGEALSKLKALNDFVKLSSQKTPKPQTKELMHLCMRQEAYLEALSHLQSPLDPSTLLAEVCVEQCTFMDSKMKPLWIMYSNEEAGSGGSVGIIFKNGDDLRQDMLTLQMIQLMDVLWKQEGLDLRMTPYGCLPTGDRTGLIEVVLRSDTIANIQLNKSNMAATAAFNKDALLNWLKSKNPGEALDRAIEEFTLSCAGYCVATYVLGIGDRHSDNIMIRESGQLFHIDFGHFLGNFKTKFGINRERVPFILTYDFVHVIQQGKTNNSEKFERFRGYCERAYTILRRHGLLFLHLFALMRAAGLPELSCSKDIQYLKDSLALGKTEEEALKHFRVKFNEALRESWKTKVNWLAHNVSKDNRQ

hERG = hERG (Homo sapiens, UniProt Q12809); assay: Inhibition of human ERG at 10 uM by patch clamp assay relative to control; assay type: toxicity
Sequence of hERG (Q12809 whole entry): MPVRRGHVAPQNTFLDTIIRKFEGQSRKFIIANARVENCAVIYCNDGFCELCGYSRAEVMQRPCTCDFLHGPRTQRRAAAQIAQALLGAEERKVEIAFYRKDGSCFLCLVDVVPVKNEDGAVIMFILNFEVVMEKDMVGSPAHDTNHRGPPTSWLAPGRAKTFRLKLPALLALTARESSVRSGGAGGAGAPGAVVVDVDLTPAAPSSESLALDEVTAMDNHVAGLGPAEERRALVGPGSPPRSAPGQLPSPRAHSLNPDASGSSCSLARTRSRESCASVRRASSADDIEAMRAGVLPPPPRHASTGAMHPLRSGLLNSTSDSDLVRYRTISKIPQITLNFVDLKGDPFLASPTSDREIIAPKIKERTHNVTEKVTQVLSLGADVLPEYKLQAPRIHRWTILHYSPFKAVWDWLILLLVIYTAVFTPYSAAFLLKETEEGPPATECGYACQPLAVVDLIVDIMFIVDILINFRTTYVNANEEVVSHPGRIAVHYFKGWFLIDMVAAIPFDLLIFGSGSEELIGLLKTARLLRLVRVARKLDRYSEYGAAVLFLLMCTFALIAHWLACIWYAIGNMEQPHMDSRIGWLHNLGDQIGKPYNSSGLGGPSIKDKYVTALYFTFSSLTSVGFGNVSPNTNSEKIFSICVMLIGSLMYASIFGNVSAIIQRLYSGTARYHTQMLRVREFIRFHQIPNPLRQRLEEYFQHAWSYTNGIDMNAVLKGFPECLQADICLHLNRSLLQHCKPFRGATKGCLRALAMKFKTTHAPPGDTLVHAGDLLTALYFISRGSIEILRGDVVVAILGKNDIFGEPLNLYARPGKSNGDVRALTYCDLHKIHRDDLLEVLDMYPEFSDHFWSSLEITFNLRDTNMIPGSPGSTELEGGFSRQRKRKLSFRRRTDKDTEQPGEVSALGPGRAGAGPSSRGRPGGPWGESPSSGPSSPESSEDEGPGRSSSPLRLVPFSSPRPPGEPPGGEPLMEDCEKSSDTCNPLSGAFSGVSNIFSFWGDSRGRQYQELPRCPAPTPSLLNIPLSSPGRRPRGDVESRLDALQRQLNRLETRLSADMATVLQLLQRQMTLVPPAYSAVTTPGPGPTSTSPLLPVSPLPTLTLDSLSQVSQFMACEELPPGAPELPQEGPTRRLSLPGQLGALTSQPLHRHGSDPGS

[8] = Plasma protein binding in Sprague-Dawley rat plasma at 1 mg/kg, iv measured up to 8 hrs by LC-MS/MS analysis; assay type: ADME, organism-based; settings: read-out: PPB (converted)
[9] = Plasma protein binding in Beagle dog at 1 mg/kg, iv; assay type: ADME, organism-based, Canis lupus familiaris; settings: read-out: PPB (converted)
[10] = Plasma protein binding in cynomolgus monkey at 1 mg/kg, iv; assay type: ADME, organism-based, Macaca fascicularis; settings: read-out: PPB (converted)
[11] = Clearance in C57BL/6 mouse at 0.5 mg/kg, iv; assay type: ADME, organism-based; settings: in vivo
[12] = Clearance in Sprague-Dawley rat at 1 mg/kg, iv measured up to 8 hrs by LC-MS/MS analysis; assay type: ADME, organism-based; settings: in vivo
[13] = Clearance in Beagle dog at 1 mg/kg, iv; assay type: ADME, organism-based, Canis lupus familiaris; settings: in vivo
[14] = Clearance in cynomolgus monkey at 1 mg/kg, iv; assay type: ADME, organism-based, Macaca fascicularis; settings: in vivo
[15] = Volume of distribution at steady state in Sprague-Dawley rat at 1 mg/kg, iv measured up to 8 hrs by LC-MS/MS analysis; assay type: ADME, organism-based; settings: in vivo
[16] = Volume of distribution at steady state in Beagle dog at 1 mg/kg, iv; assay type: ADME, organism-based, Canis lupus familiaris; settings: in vivo
[17] = Half life in C57BL/6 mouse at 0.5 mg/kg, iv; assay type: ADME, organism-based; settings: in vivo
[18] = Half life in Sprague-Dawley rat at 1 mg/kg, iv measured up to 8 hrs by LC-MS/MS analysis; assay type: ADME, organism-based; settings: in vivo
[19] = Half life in cynomolgus monkey at 1 mg/kg, iv; assay type: ADME, organism-based, Macaca fascicularis; settings: in vivo
[20] = MRT (infinity) in Sprague-Dawley rat at 1 mg/kg, iv measured up to 8 hrs by LC-MS/MS analysis; assay type: ADME, organism-based; settings: in vivo
[21] = MRT (infinity) in cynomolgus monkey at 1 mg/kg, iv; assay type: ADME, organism-based, Macaca fascicularis; settings: in vivo
[22] = AUC(0 to infinity) in C57BL/6 mouse at 0.5 mg/kg, iv; assay type: ADME, organism-based; set-up: time infinity, dose 0.5 mg/kg, route iv; settings: in vivo
[23] = AUC(0 to infinity) in Sprague-Dawley rat at 1 mg/kg, iv measured up to 8 hrs by LC-MS/MS analysis; assay type: ADME, organism-based; set-up: dose 1 mg/kg, time < 8 hrs, route iv; settings: in vivo
[24] = AUC(0 to infinity) in cynomolgus monkey at 1 mg/kg, iv; assay type: ADME, organism-based, Macaca fascicularis; set-up: time infinity, dose 1 mg/kg, route iv; settings: in vivo
[25] = Cmax in Sprague-Dawley rat at 10 mg/kg, po measured up to 24 hrs by LC-MS/MS analysis analysis; assay type: ADME, organism-based; set-up: dose 10 mg/kg, time < 24 hrs, route po; settings: in vivo
[26] = AUC(0 to infinity) in Sprague-Dawley rat at 10 mg/kg, po measured up to 24 hrs by LC-MS/MS analysis analysis; assay type: ADME, organism-based; set-up: dose 10 mg/kg, time < 24 hrs, route po; settings: in vivo
[27] = molecular target: T1, Phosphatidylinositol 4,5-bisphosphate 3-kinase catalytic subunit gamma isoform; assay: Inhibition of P13Kgamma in LPS and IFNgamma stimulated human M1 macrophage assessed as increase in IL1B expression at 1 uM pretreated for 1 hr followed by LPS and IFNgamma stimulation by qRT-PCR analysis; assay type: cell-based
Target sequence in this assay (P48736 whole entry, looked up, canonical isoform): as the sequence (P48736 whole entry, canonical isoform) above

[28] = Metabolic stability in human hepatocytes assessed as parent compound remaining at 0.5 uM measured after 4 hrs by LC-MS/MS analysis; assay type: ADME, cell-based, Hepatocyte; settings: read-out: Stability
[29] = Apparent permeability of the compound across apical to basolateral side in human Caco-2 cells; assay type: ADME, cell-based
CYP3A4 = CYP3A4 (Homo sapiens, UniProt P08684); assay: in vitro; settings: human liver microsomes, probe midazolam
Sequence of CYP3A4 (P08684 whole entry): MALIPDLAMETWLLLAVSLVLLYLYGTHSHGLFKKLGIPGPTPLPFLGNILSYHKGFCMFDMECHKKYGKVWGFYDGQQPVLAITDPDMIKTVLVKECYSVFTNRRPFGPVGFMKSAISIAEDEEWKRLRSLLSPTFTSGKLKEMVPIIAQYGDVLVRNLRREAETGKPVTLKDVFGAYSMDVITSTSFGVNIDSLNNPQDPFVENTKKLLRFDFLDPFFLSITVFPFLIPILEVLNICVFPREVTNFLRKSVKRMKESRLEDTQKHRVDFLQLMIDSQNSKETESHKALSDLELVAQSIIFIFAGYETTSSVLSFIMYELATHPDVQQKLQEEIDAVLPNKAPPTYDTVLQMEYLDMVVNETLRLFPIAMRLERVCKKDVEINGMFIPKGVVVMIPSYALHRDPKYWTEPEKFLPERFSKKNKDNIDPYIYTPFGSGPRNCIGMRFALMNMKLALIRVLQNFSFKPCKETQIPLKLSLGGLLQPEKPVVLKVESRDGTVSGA
Description: Time dependent inhibition of CYP3A4 in human liver microsomes at 10 uM using midazolam as substrate preincubated for 30 mins in presence of NADPH by LC/MS/MS analysis relative to control

Row | CLH [1] [mL/min/kg] | IC50 [2] [nM] | IC50 [3] [nM] | hepatocyte CLint at 0.5 µM [4] [µL/min/1e6 cells] | IC50 [5] [nM] | IC50 [6] [nM] | IC50 [7] [nM] | fraction unbound at 8 h [8] | fraction unbound [9] | fraction unbound [10] | clearance [11] [mL/min/kg] | clearance [12] [mL/min/kg] | clearance [13] [mL/min/kg] | clearance [14] [mL/min/kg] | Vdss [15] [L/kg] | Vdss [16] [L/kg] | half-life [17] [h] | half-life [18] [h] | half-life [19] [h] | SMILES | inhibition at 10 µM (hERG) [%] | also measured
1 | 25 | 34 | 1.9 | < 1.2 | 300 | 1250 | 1080 | 0.021 | 0.034 | 0.034 | 14.7 | 27.5 | 9.67 | 18 | 3.03 | 3.55 | 4.98 | 1.89 | 3.18 | C[C@@H](C1CC1)N1Cc2cc(-c3ccn4nc(N)c(C(=O)N[C@H]5CC[C@@](C)(O)CC5)c4n3)cc(OC(F)F)c2C1=O | 17 | MRT inf [20]: 1.86 h; MRT inf [21]: 3.41 h; AUC(0-inf) [22]: 565 ng·h/mL; AUC(0-inf) [23]: 630 ng·h/mL; AUC(0-inf) [24]: 925 ng·h/mL; Cmax [25]: 703 ng/mL; AUC(0-inf) [26]: 8160 ng·h/mL; inhibition [27]: Active; remaining at 4 h, 0.5 µM [28]: > 95%; Papp A→B [29]: 16.8 ×10⁻⁶ cm/s; inhibition at 30 min, 10 µM (CYP3A4): 10%
2 | 30 | 38 | 2.8 | < 1.2 | 240 | 2650 | 1650 | 0.023 | 0.048 | 0.05 | 17.2 | 20.8 | 14 | 17.7 | 2.91 | 3.24 | 3.93 | 2.17 | 3.65 | C[C@@H](C1CC1)N1Cc2cc(-c3ccn4nc(N)c(C(=O)N[C@H]5CC[C@@](C)(O)CC5)c4n3)cc(OC(F)(F)F)c2C1=O | 5 | MRT inf [20]: 2.33 h; MRT inf [21]: 3.58 h; AUC(0-inf) [22]: 488 ng·h/mL; AUC(0-inf) [23]: 797 ng·h/mL; AUC(0-inf) [24]: 949 ng·h/mL; Cmax [25]: 25 ng/mL; AUC(0-inf) [26]: 249 ng·h/mL; inhibition [27]: Active; remaining at 4 h, 0.5 µM [28]: > 95%; Papp A→B [29]: 4.7 ×10⁻⁶ cm/s; inhibition at 30 min, 10 µM (CYP3A4): 10%
